Results from ChEMBL document CHEMBL1123376, “3-(1H-tetrazol-5-yl)-4(3H)-quinazolinone sodium salt (MDL 427): a new antiallergic agent” (1986).

Experiments:
Type in all cases: functional
[1] = test system: Rattus norvegicus; assay: Evaluated in rat PCA (passive cutaneous anaphylaxis) test administered at 60 mg/kg ip and the inhibition of PCA due to inhibition of IgE mediated release was determined; details: route intraperitoneal; for inhibition in vivo at 60 mg/kg: Rattus norvegicus, ip
[2] = test system: Rattus norvegicus; assay: Compound was evaluated in rat PCA(passive cutaneous anaphylaxis) test administered intravenously.; details: iv
[3] = test system: Rattus norvegicus; assay: Compound was evaluated in rat PCA (passive cutaneous anaphylaxis) test administered at 100 mg/kg orally and the inhibition of PCA due to inhibition of IgE mediated release was determined; details: for inhibition in vivo at 100 mg/kg: Rattus norvegicus, po
[4] = test system: Rattus norvegicus; assay: Compound was evaluated in rat PCA (passive cutaneous anaphylaxis) test administered intravenously; details: iv

Row | Structure (SMILES) | inhibition in vivo at 60 mg/kg [1] | other results
1 | O.O=c1c2ccccc2ncn1-c1nnn[n-]1.[Na+] |  | Inhibition [1]: 93%; ED50 [2]: 0.2 mg/kg; Inhibition ([3]; route oral): 97%
2 | O=c1c2ccccc2ncn1-c1nnn[nH]1 | 100% | inhibition in vivo at 100 mg/kg [3]: 89%
3 | O=c1c2cc3c(cc2ncn1-c1nn[nH]n1)OCO3 | 90% | 
4 | O=c1c2ccccc2ncn1-n1cnnc1 | 0% | 
5 | O=c1c2ccccc2ncn1-c1cc[nH]n1 | 5% | 
6 | O=CNc1ccccc1C(=O)Nc1nn[nH]n1 | 89% | inhibition in vivo at 100 mg/kg [3]: 91%
7 | Cc1cccc2c(=O)n(-c3nn[nH]n3)cnc12 | 64% | 
8 | Cc1nc2ccccc2c(=O)n1-c1nn[nH]n1 | 22% | 
9 | COc1cccc2c(=O)n(-c3nn[nH]n3)cnc12 | 44% | 
10 | O=c1c2ccccc2ncn1-c1nc[nH]n1 | 75% | 
11 | O=c1c2cc(Cl)ccc2ncn1-c1nn[nH]n1 | 89% | 
12 | CCc1nc2ccccc2c(=O)n1-c1nn[nH]n1 | 41% | 
13 | O=c1c2ccccc2nc(-c2ccccc2)n1-c1nn[nH]n1 | 27% | 
14 | Nc1ccccc1C(=O)Nc1nn[nH]n1 | 59% | ED50 [4]: 10.5 mg/kg; inhibition in vivo at 100 mg/kg [3]: 7%
15 | Cc1cccc2ncn(-c3nn[nH]n3)c(=O)c12 | 80% | 
16 | Cc1ccc2ncn(-c3nn[nH]n3)c(=O)c2c1 | 100% | 
17 | O=C([O-])c1cc(=O)c2c(OCC(O)COc3cccc4oc(C(=O)[O-])cc(=O)c34)cccc2o1.[Na+].[Na+] [CROMOLYN SODIUM] | 100% | ED50 [4]: 0.7 mg/kg; inhibition in vivo at 100 mg/kg [3]: 0%
